# Measured values: PMC7402526, “An in vitro quantitative systems pharmacology approach for deconvolving mechanisms of drug-induced, multilineage cytopenias” (PLoS Computational Biology, 2020)
# pEC50: −log10 of the molar value.
# Columns and labels:
# [1] = tested on: granulocyte progenitor (Gran-lin prog); assay: MLTA, GranP: concentration-response and QSP model fit; type: cell-based, human; settings: Homo sapiens, 144 h
# Method in brief: (§1)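 Drug was added at time 0 to thawed human bone marrow CD34+ cells in SFEM II plus a cytokine cocktail. After 6 days at 37°C, subsets were counted by surface-marker flow with TruCount beads. Vehicle-normalized, donor-pooled data then fed an Emax model separating anti-proliferative from cell-killing effects.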
# [2] = tested on: monocyte progenitors (monocyte prog); assay: MLTA, MonoP: concentration-response and QSP model fit; type: cell-based, human
# Method in brief: as §1
# [3] = tested on: early erythroid cells (Eryth I); assay: MLTA, ErythI: concentration-response and QSP model fit; type: cell-based, human
# Method in brief: as §1
# [4] = tested on: hematopoietic stem cells (HSCs); assay: Multi-lineage toxicity assay (MLTA), HSCs: concentration-response and QSP model fit; type: cell-based, human
# Method in brief: (§2)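 Six-day flow cytometry counts, bead-normalized and expressed relative to the mean of six vehicle wells, underlie each value. Cells were primary human bone marrow CD34+ cells cultured in SFEM II with cytokines promoting multi-lineage differentiation and self-renewal.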
# [5] = tested on: total viable cells (totalViableCells); assay: MLTA, total live cells concentration-response; type: cell-based; settings: Homo sapiens, 144 h, 6 days, normalized to vehicle control, read-out: total_live normalized cell count
# Method in brief: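 Freeze-thawed primary human bone marrow CD34+ cells in SFEM II with cytokine cocktail, drug added day 0, 6 days at 37°C, 5% CO2. Live/dead counts by 17-parameter flow cytometry with DAPI exclusion, bead-normalized, volume-corrected to cells/mL. Normalized per donor to mean of six vehicle wells; 2–7 donors pooled.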
# [6] = tested on: lymphocyte progenitors (LymP); assay: MLTA, LymP: concentration-response and QSP model fit; type: cell-based, human; settings: Homo sapiens, Lymphocyte, 144 h
# Method in brief: as §2
# monocytes (monocyte-lin) = assay: MLTA, Mono: concentration-response and QSP model fit; type: cell-based, human; settings: Homo sapiens, Monocyte, 144 h
# Method in brief: as §1
# [7] = cell-killing component, max(0, EmaxT-1)
smiles,measurement,setting,value
CC(=O)O[C@@]12CO[C@@H]1C[C@H](O)[C@@]1(C)C(=O)[C@H](O)C3=C(C)[C@@H](OC(=O)[C@H](O)[C@@H](NC(=O)OC(C)(C)C)c4ccccc4)C[C@@](O)([C@@H](OC(=O)c4ccccc4)[C@H]21)C3(C)C [docetaxel],activity at 0.0002 µM,"[1]; dose 0.2 nM, 6 days, normalized to vehicle control, read-out: GranPs normalized cell count",110%
same,activity at 0.001 µM,"[1]; dose 1 nM, 6 days, normalized to vehicle control, read-out: GranPs normalized cell count",110%
same,activity at 0.005 µM,"[1]; dose 5 nM, 6 days, normalized to vehicle control, read-out: GranPs normalized cell count",4.64%
same,activity at 0.025 µM,"[1]; dose 25 nM, 6 days, normalized to vehicle control, read-out: GranPs normalized cell count",0%
same,activity at 0.1 µM,"[1]; dose 100 nM, 6 days, normalized to vehicle control, read-out: GranPs normalized cell count",0.0204%
same,activity at 0.5 µM,"[1]; dose 500 nM, 6 days, normalized to vehicle control, read-out: GranPs normalized cell count",0.0147%
same,activity at 2.5 µM,"[1]; dose 2500 nM, 6 days, normalized to vehicle control, read-out: GranPs normalized cell count",0.0152%
same,Emax,"[1]; parameter from QSP model fitting, read-out: Emax_drug_GranP",0.04%
same,pEC50,"[2]; Homo sapiens, Monocyte, 144 h, QSP model fit of 6-day MLTA data, read-out: EC50MonoP",8.10
same,activity at 0.0002 µM,"[2]; Homo sapiens, Monocyte, 144 h, dose 0.2 nM, 6 days, normalized to vehicle control, read-out: MonoPs normalized cell count",110%
same,activity at 0.001 µM,"[2]; Homo sapiens, Monocyte, 144 h, dose 1 nM, 6 days, normalized to vehicle control, read-out: MonoPs normalized cell count",107%
same,activity at 0.005 µM,"[2]; Homo sapiens, Monocyte, 144 h, dose 5 nM, 6 days, normalized to vehicle control, read-out: MonoPs normalized cell count",7.72%
same,activity at 0.025 µM,"[2]; Homo sapiens, Monocyte, 144 h, dose 25 nM, 6 days, normalized to vehicle control, read-out: MonoPs normalized cell count",0.204%
same,activity at 0.1 µM,"[2]; Homo sapiens, Monocyte, 144 h, dose 100 nM, 6 days, normalized to vehicle control, read-out: MonoPs normalized cell count",0.162%
same,activity at 0.5 µM,"[2]; Homo sapiens, Monocyte, 144 h, dose 500 nM, 6 days, normalized to vehicle control, read-out: MonoPs normalized cell count",0.302%
same,activity at 2.5 µM,"[2]; Homo sapiens, Monocyte, 144 h, dose 2500 nM, 6 days, normalized to vehicle control, read-out: MonoPs normalized cell count",0.319%
same,Emax,"[2]; Homo sapiens, Monocyte, 144 h, parameter from QSP model fitting, read-out: Emax_drug_MonoP",146%
same,"EmaxCK,MonoP",[2]; [7],0.459 day⁻¹
same,pEC50,"[3]; Homo sapiens, 144 h, QSP model fit of 6-day MLTA data, read-out: EC50ErythI",8.09
same,activity at 0.0002 µM,"[3]; Homo sapiens, 144 h, dose 0.2 nM, 6 days, normalized to vehicle control, read-out: ErythI normalized cell count",112%
same,activity at 0.001 µM,"[3]; Homo sapiens, 144 h, dose 1 nM, 6 days, normalized to vehicle control, read-out: ErythI normalized cell count",110%
same,activity at 0.005 µM,"[3]; Homo sapiens, 144 h, dose 5 nM, 6 days, normalized to vehicle control, read-out: ErythI normalized cell count",5.32%
same,activity at 0.025 µM,"[3]; Homo sapiens, 144 h, dose 25 nM, 6 days, normalized to vehicle control, read-out: ErythI normalized cell count",0.559%
same,activity at 0.1 µM,"[3]; Homo sapiens, 144 h, dose 100 nM, 6 days, normalized to vehicle control, read-out: ErythI normalized cell count",0.401%
same,activity at 0.5 µM,"[3]; Homo sapiens, 144 h, dose 500 nM, 6 days, normalized to vehicle control, read-out: ErythI normalized cell count",0.687%
same,activity at 2.5 µM,"[3]; Homo sapiens, 144 h, dose 2500 nM, 6 days, normalized to vehicle control, read-out: ErythI normalized cell count",0.409%
same,Emax,"[3]; Homo sapiens, 144 h, parameter from QSP model fitting, read-out: Emax_drug_ErythroidI",173%
same,"EmaxCK,ErythI",[3]; [7],0.726 day⁻¹
same,pEC50,"[4]; Homo sapiens, Hematopoietic stem cell, 144 h, QSP model fit of 6-day MLTA data",7.47
same,activity at 0.0002 µM,"[4]; Homo sapiens, Hematopoietic stem cell, 144 h, dose 0.2 nM, 6 days, normalized to vehicle control, read-out: HSCs normalized cell count",97.9%
same,activity at 0.001 µM,"[4]; Homo sapiens, Hematopoietic stem cell, 144 h, dose 1 nM, 6 days, normalized to vehicle control, read-out: HSCs normalized cell count",104%
same,activity at 0.005 µM,"[4]; Homo sapiens, Hematopoietic stem cell, 144 h, dose 5 nM, 6 days, normalized to vehicle control, read-out: HSCs normalized cell count",64.6%
same,activity at 0.025 µM,"[4]; Homo sapiens, Hematopoietic stem cell, 144 h, dose 25 nM, 6 days, normalized to vehicle control, read-out: HSCs normalized cell count",4%
same,activity at 0.1 µM,"[4]; Homo sapiens, Hematopoietic stem cell, 144 h, dose 100 nM, 6 days, normalized to vehicle control, read-out: HSCs normalized cell count",0.534%
same,activity at 0.5 µM,"[4]; Homo sapiens, Hematopoietic stem cell, 144 h, dose 500 nM, 6 days, normalized to vehicle control, read-out: HSCs normalized cell count",2.32%
same,activity at 2.5 µM,"[4]; Homo sapiens, Hematopoietic stem cell, 144 h, dose 2500 nM, 6 days, normalized to vehicle control, read-out: HSCs normalized cell count",0.559%
same,Emax,"[4]; Homo sapiens, Hematopoietic stem cell, 144 h, parameter from QSP model fitting, read-out: Emax_drug_HSC",130%
same,"EmaxCK,HSC",[4]; [7],0.3 day⁻¹
same,viability at 0.0002 µM,[5]; dose 0.2 nM,100%
same,viability at 0.001 µM,[5]; dose 1 nM,108%
same,viability at 0.005 µM,[5]; dose 5 nM,4.66%
same,viability at 0.025 µM,[5]; dose 25 nM,0.311%
same,viability at 0.1 µM,[5]; dose 100 nM,0.197%
same,viability at 0.5 µM,[5]; dose 500 nM,0.378%
same,viability at 2.5 µM,[5]; dose 2500 nM,0.283%
same,activity at 0.0002 µM,"[6]; dose 0.2 nM, 6 days, normalized to vehicle control, read-out: LymP normalized cell count",96.4%
same,activity at 0.001 µM,"[6]; dose 1 nM, 6 days, normalized to vehicle control, read-out: LymP normalized cell count",131%
same,activity at 0.005 µM,"[6]; dose 5 nM, 6 days, normalized to vehicle control, read-out: LymP normalized cell count",24.3%
same,activity at 0.025 µM,"[6]; dose 25 nM, 6 days, normalized to vehicle control, read-out: LymP normalized cell count",6.02%
same,activity at 0.1 µM,"[6]; dose 100 nM, 6 days, normalized to vehicle control, read-out: LymP normalized cell count",2.7%
same,activity at 0.5 µM,"[6]; dose 500 nM, 6 days, normalized to vehicle control, read-out: LymP normalized cell count",7.71%
same,activity at 2.5 µM,"[6]; dose 2500 nM, 6 days, normalized to vehicle control, read-out: LymP normalized cell count",6.19%
same,Emax,"[6]; parameter from QSP model fitting, read-out: Emax_drug_LymP",0.16%
same,pEC50,monocytes (monocyte-lin); QSP model fit of 6-day MLTA data,8.04
same,activity at 0.0002 µM,"monocytes (monocyte-lin); dose 0.2 nM, 6 days, normalized to vehicle control, read-out: Mon normalized cell count",103%
same,activity at 0.001 µM,"monocytes (monocyte-lin); dose 1 nM, 6 days, normalized to vehicle control, read-out: Mon normalized cell count",106%
same,activity at 0.005 µM,"monocytes (monocyte-lin); dose 5 nM, 6 days, normalized to vehicle control, read-out: Mon normalized cell count",2.6%
same,activity at 0.025 µM,"monocytes (monocyte-lin); dose 25 nM, 6 days, normalized to vehicle control, read-out: Mon normalized cell count",1.23%
same,activity at 0.1 µM,"monocytes (monocyte-lin); dose 100 nM, 6 days, normalized to vehicle control, read-out: Mon normalized cell count",1.06%
same,activity at 0.5 µM,"monocytes (monocyte-lin); dose 500 nM, 6 days, normalized to vehicle control, read-out: Mon normalized cell count",2.03%
same,activity at 2.5 µM,"monocytes (monocyte-lin); dose 2500 nM, 6 days, normalized to vehicle control, read-out: Mon normalized cell count",1.39%
same,Emax,"monocytes (monocyte-lin); parameter from QSP model fitting, read-out: Emax_drug_Mono",19.8%
